The text below walks through data of US8293724B2, “Therapeutic applications of fatty acid amide hydrolase inhibitors” (The United States of America, as represented by the …, priority 2007, dated 2012).

Series [1] in a line: Non-fasting blood glucose in SHR and WKY. Particulars: AM3506 1 mg/kg i.p., n=6.
Series [2] concerns spontaneously hypertensive rat (SHR). Briefly: Hemodynamic measurements in anesthetized spontaneously hypertensive rats. Type of series: in vivo. On the procedure:
Anandamide, the CB1 receptor antagonist AM251, and the anandamide transport inhibitors AM404 and OMDM-2 were obtained from Tocris; and the CB1 antagonist SR141716 and the CB2 antagonist SR144528 were from the National Institute on Drug Abuse drug supply program. Drugs were mixed in corn oil and sonicated for 5 minutes at 4° C. The mixture was added to 4 parts of Pluronic F68 (Sigma-Aldrich) solution (40 mg/mL) dissolved in water and sonicated to obtain a stable suspension for bolus intravenous injections.
Rats were obtained from Harlan (Indianapolis, Ind.). Male, 8- to 10-month-old SHR, age-matched male Wistar-Kyoto rats (WKY), and 8- to 10-week-old male Sprague-Dawley rats were maintained on standard rat chow and water ad libitum. Dahl salt-sensitive and salt-resistant rats (male, Rapp strain, 6 weeks old) were maintained for 4 weeks on rat chow containing either 0.12% or 8% NaCl. […] Hypertension was induced in Sprague-Dawley rats by chronic infusion of angiotensin II (60 ng/min) via an osmotic minipump (Imig et al. Hypertension 2002; 39: 690-694. Rats were used 10 to 12 days after implantation of the minipump.
For hemodynamic measurements, rats were anesthetized with pentobarbital sodium (60 mg/kg IP) and tracheotomized to facilitate breathing. Animals were placed on controlled heating pads, and core temperature, measured via a rectal probe, was maintained at 37° C. A microtip pressure-volume catheter (SPR-838; Millar Instruments) was inserted into the right carotid artery and advanced into the left ventricle (LV) under pressure control as described previously. Polyethylene cannulae (P50) were inserted into the right femoral artery and vein for measurement of mean arterial pressure (MAP) and administration of drugs, respectively. […] Heart rate, maximal LV systolic pressure, MAP, and maximal slope of systolic pressure increment (+dP/dt) were computed with a cardiac pressure-volume analysis program (PVAN2.9; Millar). Cardiac output calculated and corrected according to in vitro and in vivo volume calibrations with PVAN2.918 was normalized to body weight (cardiac index [CI]). Total peripheral resistance index (TPRI) was calculated by the equation TPRI=MAP/CI. In 3 experiments, drugs were microinjected into the fourth cerebral ventricle as described by Ramirez-Gonzalez et al. Circ Res. 1983; 53, 150-157.
Time-dependent variables were analyzed by ANOVA followed by the Dunnett post hoc test. In other cases, the Student t test was used, as appropriate. Values with P<0.05 were considered statistically significant.

The target of a further series is T1, FAAH (Rattus norvegicus, UniProt P97612).
T1 construct: from tissue; host or cells: liver of SHR and WKY rats treated in vivo
T1 sequence (P97612 1-579): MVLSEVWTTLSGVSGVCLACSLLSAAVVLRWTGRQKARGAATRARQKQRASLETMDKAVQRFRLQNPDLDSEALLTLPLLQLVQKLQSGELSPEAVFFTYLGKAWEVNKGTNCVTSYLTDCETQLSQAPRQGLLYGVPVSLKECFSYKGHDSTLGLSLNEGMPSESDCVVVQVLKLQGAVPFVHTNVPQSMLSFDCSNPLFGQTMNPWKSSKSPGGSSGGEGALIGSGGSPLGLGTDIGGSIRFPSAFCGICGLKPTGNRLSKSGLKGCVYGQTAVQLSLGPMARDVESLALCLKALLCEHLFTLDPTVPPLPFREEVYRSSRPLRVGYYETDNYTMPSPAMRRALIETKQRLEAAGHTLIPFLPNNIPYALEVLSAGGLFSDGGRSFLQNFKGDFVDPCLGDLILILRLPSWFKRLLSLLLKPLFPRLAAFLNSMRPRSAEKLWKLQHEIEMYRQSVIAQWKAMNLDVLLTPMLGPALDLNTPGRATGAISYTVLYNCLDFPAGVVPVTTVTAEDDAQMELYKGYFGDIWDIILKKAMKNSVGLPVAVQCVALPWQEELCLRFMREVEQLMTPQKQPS
Briefly: Hepatic FAAH activity in SHR and WKY after i.p. treatment. Type of series: in vivo. Particulars: AM3506 1 mg/kg, n=3-5.

Where [3] appears, read: AM3506 bolus 1 mg/kg, anesthetized SHR, FIG. 7.

Each structure is given as a SMILES string.

Take `O=S(=O)(F)CCCCCc1ccc(O)cc1` [AM3506]: the “non-fasting blood glucose after treatment” value in series [1] (SHR, from 97.8±5.6) amounted to 97.8 ± 2.9 mg/dL. Further, the “non-fasting blood glucose after treatment” value in series [1] (WKY, from 114.5±5.3) was found to be 108.2 ± 4.5 mg/dL. Also, the “lowering of blood pressure” value in series [2] (AM3506 0.3 mg/kg i.v., SHR) was 90 mmHg. The “dose equivalence in producing hypotension” value in series [2] (AM3506 1 mg/kg versus URB597 10 mg/kg) was “equieffective with 10 mg/kg URB597”. In series [2] (setting [3]), the cardiac contractility entry is on record as “significantly decreases”, the cardiac output result is on record as “reduced”, the “left ventricular end systolic pressure (LVESP)” value is reported as “decreases” and the “maximal slope of the systolic pressure increment (dP/dt)” value is recorded as “decrease”. For the same molecule, the stroke volume result in series [2] (setting [3]) is “reduced”. For the same molecule, the blood pressure effect result in series [2] (AM3506 intravenously 1 mg/kg in 50 μl, anesthetized SHR, FIG. 1) is recorded as “hypotensive effect”. Also, the “reduction of hepatic FAAH activity” value on FAAH (SHR) amounted to 11.1±0.04%. The “reduction of hepatic FAAH activity” value at FAAH (WKY) is 6.7±0.2%.
